In ChEMBL document CHEMBL1133038, “New quinolinic derivatives as centrally active antioxidants” (Bioorg Med Chem Lett, 2000):

Columns and labels:
HT-22 [1] = assay: The concentration producing 50% toxicity in HT-22 hippocampal cell line.; format: functional; details: Mus musculus, read-out: TC50 (the source's name)
Mus musculus [2] = assay: Percent survival of NMRI mice after 5 hours of intraperitoneal administration of 150 mg/kg of compound.; format: functional; details: ip
HT-22 [3] = assay: The concentration producing 50% protection against L-HCA-mediated neurotoxicity in HT-22 hippocampal cell line.; format: functional, Mus musculus
Mus musculus [4] = assay: Body temperature of NMRI mice after 30 minutes of intraperitoneal administration of 150 mg/kg compound.; format: functional
HT-22 [5] = assay: The minimum tolerated concentration by MTT reduction assay in HT-22 hippocampal cell line.; format: functional, Mus musculus
HT-22 [6] = assay: Safety ratio of MTC to that of PC50; format: functional, Mus musculus
Mus musculus [7] = assay: The compound was tested for % survival of NMRI mice after 5 hours of intraperitoneal administration of 150 mg/kg of dose; 30/60; format: functional; details: ip
[8] = Safety ratio of MTC to that of PC50; Not relevant; format: toxicity

| Molecule | CC50 (HT-22 [1]) | survival at 150 mg/kg (Mus musculus [2]) | PC50 (HT-22 [3]) | change in body temperature (Mus musculus [4]) | MTC (HT-22 [5]) | Ratio (HT-22 [6]) | survival at 150 mg/kg (Mus musculus [7]) | Ratio [8] | PC50 (HT-22 [3]; Mus musculus) | MTC (HT-22 [5]; Mus musculus) | Ratio (HT-22 [6]; Mus musculus) |
| --- | --- | --- | --- | --- | --- | --- | --- | --- | --- | --- | --- |
| CCOc1c(C)c(C)c2c(c1C)C=CC(C)(C)N2 | 123 µM | 70% | 0.46 µM | -2.5 °C | 50 µM | 109 | – | – | – | – | – |
| CCOc1c(C)c(C)c2c(c1C)C=CC1(CCCCC1)N2 | 17.8 µM | 50% | 0.17 µM | -0.8 °C | 10 µM | 59 | – | – | – | – | – |
| CC(C)(C)/[N+]([O-])=C/c1ccccc1 | – | – | >200 µM | -2.1 °C | >200 µM | – | 50% | Not relevant | – | – | – |
| CCOc1ccc2c(c1)C=CC1(CCN(CC3CC3)CC1)N2 | 200 µM | – | 0.77 µM | – | 200 µM | 260 | – | – | – | – | – |
| CC1=NN(c2ccccc2)C(=O)C1 [EDARAVONE] | > 200 µM | 80% | 70.4 µM | -2.4 °C | 200 µM | 2.8 | – | – | – | – | – |
| CCOc1c(C)c(C)c2c(c1C)CCC(C)(C)N2 | 128 µM | 100% | 0.2 µM | -0.2 °C | 50 µM | 250 | – | – | – | – | – |
| COc1ccc2c(c1)C=CC1(CCCCC1)N2 | 46.9 µM | 100% | 0.49 µM | -1 °C | 5 µM | 10 | – | – | – | – | – |
| CCOc1ccc2c(c1)C(C)CC(C)(C)N2 (stereo not drawn) | 137 µM | – | 0.86 µM | – | 50 µM | 58 | – | – | – | – | – |
| CCOc1c(C(C)(C)C)cc2c(c1C(C)(C)C)C=CC(C)(C)N2 | 36.5 µM | 60% | 0.1 µM | -1 °C | 25 µM | 250 | – | – | – | – | – |
| CCOc1c(C(C)C)cc2c(c1C(C)C)CCC(C)(C)N2 | 18.2 µM | 40% | 0.06 µM | -0.5 °C | 10 µM | 167 | – | – | – | – | – |
| CCOc1ccc2c(c1)C=CC1(CCCCC1)N2 | 17.1 µM | 80% | 0.18 µM | -0.2 °C | 5 µM | 28 | – | – | – | – | – |
| CCOc1c(C(C)C)cc2c(c1C(C)C)C=CC1(CCCCC1)N2 | 16.9 µM | – | 0.12 µM | – | 10 µM | 83 | – | – | – | – | – |
| CCOc1c(C)c(C)c2c(c1C)CCC1(CCCCC1)N2 | 17.2 µM | 60% | 0.15 µM | -0.8 °C | 10 µM | 67 | – | – | – | – | – |
| CCOc1ccc2c(c1)C=CC(C)(C)N2 | 56 µM | 100% | 0.19 µM | -1.7 °C | 25 µM | 132 | – | – | – | – | – |
| CCOc1c(C)cc2c(c1C)C=CC1(CCCCC1)N2 | 19.3 µM | 70% | 0.03 µM | -0.3 °C | 10 µM | 333 | – | – | – | – | – |
| CCOc1ccc2c(c1)CCC1(CCCCC1)N2 | 74.5 µM | 60% | 0.16 µM | -0.7 °C | 25 µM | 156 | – | – | – | – | – |
| C1=CC2(CCCCC2)Nc2ccc(Oc3ccccc3)cc21 | 11.2 µM | – | 4.75 µM | – | 10 µM | 2.1 | – | – | – | – | – |
| CCOc1ccc2c(c1)C=CC1(CCNCC1)N2 | 139 µM | – | 0.51 µM | – | 10 µM | 20 | – | – | – | – | – |
| CCOc1cccc2c1NC(C)(C)C=C2 | 200 µM | – | 1 µM | – | 100 µM | 100 | – | – | – | – | – |
| CCOc1ccc2c(c1)C(C)=CC(C)(C)N2 [E324] | 103 µM | 80% | 0.41 µM | -1.85 °C | 50 µM | 122 | – | – | – | – | – |
| CCOc1cccc2c1NC1(C=C2)CCCCC1 | 17.9 µM | 60% | 0.37 µM | -1 °C | 10 µM | 27 | – | – | – | – | – |
| CC(C)(C)C(=O)Oc1ccc2c(c1)C=CC1(CCCCC1)N2 | 1.61 µM | 30% | 0.73 µM | -2.8 °C | 1 µM | 1.4 | – | – | – | – | – |
| CCOc1c(C)cc2c(c1C)CCC1(CCCCC1)N2 | 17.6 µM | 80% | 0.01 µM | -2.2 °C | 10 µM | 1000 | – | – | – | – | – |
| O=c1c2ccccc2[se]n1-c1ccccc1 [EBSELEN] | 20 µM | 20% | 1 µM | -1.85 °C | 10 µM | 10 | – | – | – | – | – |
| CCOc1c(C)cc2c(c1C)C=CC(C)(C)N2 | 182 µM | 100% | 0.35 µM | -0.9 °C | 50 µM | 143 | – | – | – | – | – |
| CCOc1c(C)cc2c(c1C)CCC(C)(C)N2 | 186 µM | 80% | 0.16 µM | -0.5 °C | 100 µM | 625 | – | – | – | – | – |
| CCOc1c(C(C)C)cc2c(c1C(C)C)C=CC(C)(C)N2 | 200 µM | 50% | 0.07 µM | -0.05 °C | 10 µM | 143 | – | – | – | – | – |
| CC(C)(C)Oc1ccc2c(c1)C=CC1(CCCCC1)N2 | 13.2 µM | 30% | 0.13 µM | -0.2 °C | 10 µM | 77 | – | – | – | – | – |
| VITAMIN E | – | – | – | – | – | – | – | – | 0.8 µM | > 200 µM | > 250 |
